Patent US20230085307A1, “PYRIDAZINONE COMPOUND AND HERBICIDE” (NISSAN CHEMICAL CORPORATION, priority 2019, published 2023)

Assays:
[1] = test system: Japanese bulrush; assay: Test Example 1: herbicidal activity, application before weed generation under submerged conditions (Table 16, symbol B); assay type: in vivo, Japanese bulrush (Schoenoplectus juncoides); conditions: 320 g/ha applied herbicide
Outline: (§1)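 Alluvial soil was flooded to 4 cm depth, weed seeds were sown mixed and 2.5-leaf rice seedlings were transplanted. On sowing day, the compound's emulsion, diluted in water to a set dose, was applied to the water surface. Plants grew at 25–30 °C and were scored 0–5 after three weeks.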

[2] = test system: barnyard grass; assay: Test Example 5: herbicidal effect by foliage application, plastic box (Table 20, symbol H); assay type: in vivo, barnyard grass (Echinochloa crus-galli); conditions: foliage application, 320 g/ha, evaluated three weeks after application
Outline: (§2)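 Plants were sown into sterilized diluvial soil under about 1.5 cm cover and kept in a greenhouse at 25° C. to 30° C. Fourteen days on, foliage received an even spray of the diluted emulsion. Herbicidal or crop effect was judged three weeks afterwards.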

[3] = test system: velvetleaf; assay: Test Example 4: herbicidal effect by soil treatment (Table 19, symbol M); assay type: in vivo, velvetleaf (Abutilon theophrasti); conditions: amount of applied herbicide 320 g/ha
Outline: (§3)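 Pre-emergence style soil spray: seeds under ~1.5 cm sterilized diluvial soil received a uniform coat of emulsion diluted to the predetermined herbicide amount. Greenhouse 25–30° C; readout at week three on previously defined criteria.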

[4] = test system: late watergrass; assay: Test Example 1: herbicidal activity, application before weed generation under submerged conditions (Table 16, symbol A); assay type: in vivo, late watergrass (Echinochloa oryzicola); conditions: 320 g/ha applied herbicide
Outline: as §1

[5] = test system: chickweed; assay: Test Example 5: herbicidal effect by foliage application, plastic box (Table 20, symbol P); assay type: in vivo, common chickweed (Stellaria media); conditions: foliage application, 320 g/ha, evaluated three weeks after application
Outline: as §2

[6] = test system: persian speedwell; assay: Test Example 4: herbicidal effect by soil treatment (Table 19, symbol R); assay type: in vivo, Persian speedwell (Veronica persica); conditions: amount of applied herbicide 320 g/ha
Outline: as §3

[7] = test system: blackgrass; assay: Test Example 5: herbicidal effect by foliage application, plastic box (Table 20, symbol J); assay type: in vivo, blackgrass (Alopecurus myosuroides); conditions: foliage application, 320 g/ha, evaluated three weeks after application
Outline: as §2

[8] = test system: southern crabgrass; assay: Test Example 5: herbicidal effect by foliage application, plastic box (Table 20, symbol F); assay type: in vivo, southern crabgrass (Digitaria ciliaris); conditions: foliage application, 320 g/ha, evaluated three weeks after application
Outline: as §2

[9] = test system: windgrass; assay: Test Example 4: herbicidal effect by soil treatment (Table 19, symbol L); assay type: in vivo, windgrass (Apera spica-venti); conditions: amount of applied herbicide 320 g/ha
Outline: as §3

[10] = test system: windgrass; assay: Test Example 5: herbicidal effect by foliage application, plastic box (Table 20, symbol L); assay type: in vivo, windgrass (Apera spica-venti); conditions: foliage application, 320 g/ha, evaluated three weeks after application
Outline: as §2

[11] = test system: southern crabgrass; assay: Test Example 4: herbicidal effect by soil treatment (Table 19, symbol F); assay type: in vivo, southern crabgrass (Digitaria ciliaris); conditions: amount of applied herbicide 320 g/ha
Outline: as §3

[12] = test system: green foxtail; assay: Test Example 4: herbicidal effect by soil treatment (Table 19, symbol G); assay type: in vivo, green foxtail (Setaria viridis); conditions: amount of applied herbicide 320 g/ha
Outline: as §3

[13] = test system: persian speedwell; assay: Test Example 5: herbicidal effect by foliage application, plastic box (Table 20, symbol R); assay type: in vivo, Persian speedwell (Veronica persica); conditions: foliage application, 320 g/ha, evaluated three weeks after application
Outline: as §2

[14] = test system: blackgrass; assay: Test Example 4: herbicidal effect by soil treatment (Table 19, symbol J); assay type: in vivo, blackgrass (Alopecurus myosuroides); conditions: amount of applied herbicide 320 g/ha
Outline: as §3

[15] = test system: wild oat; assay: Test Example 4: herbicidal effect by soil treatment (Table 19, symbol I); assay type: in vivo, wild oat (Avena fatua); conditions: amount of applied herbicide 320 g/ha
Outline: as §3

[16] = test system: barnyard grass; assay: Test Example 3: herbicidal effect by foliage application, Wagner pot (Table 18, symbol H); assay type: in vivo, barnyard grass (Echinochloa crus-galli); conditions: amount of applied herbicide 320 g/ha
Outline: (§4)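 Plants were sown in alluvial soil held under 0.1–0.5 cm standing water and grown 14 days in a greenhouse at 25–30 °C. An emulsifiable formulation, water-diluted to the set dose, was then sprayed onto the foliage, and effects were scored three weeks later using previously defined criteria.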

[17] = test system: lambsquarters; assay: Test Example 4: herbicidal effect by soil treatment (Table 19, symbol O); assay type: in vivo, lambsquarters (Chenopodium album); conditions: amount of applied herbicide 320 g/ha
Outline: as §3

[18] = test system: lambsquarters; assay: Test Example 5: herbicidal effect by foliage application, plastic box (Table 20, symbol O); assay type: in vivo, lambsquarters (Chenopodium album); conditions: foliage application, 320 g/ha, evaluated three weeks after application
Outline: as §2

[19] = test system: chickweed; assay: Test Example 4: herbicidal effect by soil treatment (Table 19, symbol P); assay type: in vivo, common chickweed (Stellaria media); conditions: amount of applied herbicide 320 g/ha
Outline: as §3

[20] = test system: velvetleaf; assay: Test Example 5: herbicidal effect by foliage application, plastic box (Table 20, symbol M); assay type: in vivo, velvetleaf (Abutilon theophrasti); conditions: foliage application, 320 g/ha, evaluated three weeks after application
Outline: as §2

[21] = test system: wild oat; assay: Test Example 5: herbicidal effect by foliage application, plastic box (Table 20, symbol I); assay type: in vivo, wild oat (Avena fatua); conditions: foliage application, 320 g/ha, evaluated three weeks after application
Outline: as §2

[22] = test system: barnyard grass; assay: Test Example 4: herbicidal effect by soil treatment (Table 19, symbol H); assay type: in vivo, barnyard grass (Echinochloa crus-galli); conditions: amount of applied herbicide 320 g/ha
Outline: as §3

[23] = test system: rice flat sedge; assay: Test Example 3: herbicidal effect by foliage application, Wagner pot (Table 18, symbol E); assay type: in vivo, rice flat sedge (Cyperus iria); conditions: amount of applied herbicide 320 g/ha
Outline: as §4

[24] = test system: Chinese sprangletop; assay: Test Example 3: herbicidal effect by foliage application, Wagner pot (Table 18, symbol D); assay type: in vivo, chinese sprangletop (Leptochloa chinensis); conditions: amount of applied herbicide 320 g/ha
Outline: as §4

[25] = test system: green foxtail; assay: Test Example 5: herbicidal effect by foliage application, plastic box (Table 20, symbol G); assay type: in vivo, green foxtail (Setaria viridis); conditions: foliage application, 320 g/ha, evaluated three weeks after application
Outline: as §2

[26] = test system: redroot pigweed; assay: Test Example 4: herbicidal effect by soil treatment (Table 19, symbol N); assay type: in vivo, redroot pigweed (Amaranthus retroflexus); conditions: amount of applied herbicide 320 g/ha
Outline: as §3

[27] = test system: Italian ryegrass; assay: Test Example 4: herbicidal effect by soil treatment (Table 19, symbol K); assay type: in vivo, Italian ryegrass (Lolium multiflorum); conditions: amount of applied herbicide 320 g/ha
Outline: as §3

[28] = test system: oval-leafed pondweed; assay: Test Example 1: herbicidal activity, application before weed generation under submerged conditions (Table 16, symbol C); assay type: in vivo, oval-leafed pondweed (Monochoria vaginalis); conditions: 320 g/ha applied herbicide
Outline: as §1

[29] = test system: Italian ryegrass; assay: Test Example 5: herbicidal effect by foliage application, plastic box (Table 20, symbol K); assay type: in vivo, Italian ryegrass (Lolium multiflorum); conditions: foliage application, 320 g/ha, evaluated three weeks after application
Outline: as §2

[30] = test system: redroot pigweed; assay: Test Example 5: herbicidal effect by foliage application, plastic box (Table 20, symbol N); assay type: in vivo, redroot pigweed (Amaranthus retroflexus); conditions: foliage application, 320 g/ha, evaluated three weeks after application
Outline: as §2

Compound	Herbicidal effect on B: Japanese bulrush (grade 0-5) [1]	herbicidal effect on H: barnyard grass (criteria 0-5) [2]	Herbicidal effect on A: late watergrass (grade 0-5) [4]	herbicidal effect on P: chickweed (criteria 0-5) [5]	herbicidal effect on J: blackgrass (criteria 0-5) [7]	herbicidal effect on F: southern crabgrass (criteria 0-5) [8]	herbicidal effect on L: windgrass (criteria 0-5) [10]	herbicidal effect on R: persian speedwell (criteria 0-5) [13]	herbicidal effect on H: barnyard grass [16]	herbicidal effect on O: lambsquarters (criteria 0-5) [18]	herbicidal effect on M: velvetleaf (criteria 0-5) [20]	herbicidal effect on I: wild oat (criteria 0-5) [21]	herbicidal effect on E: rice flat sedge [23]	herbicidal effect on D: Chinese sprangletop [24]	herbicidal effect on G: green foxtail (criteria 0-5) [25]	Herbicidal effect on C: oval-leafed pondweed (grade 0-5) [28]	herbicidal effect on K: Italian ryegrass (criteria 0-5) [29]	herbicidal effect on N: redroot pigweed (criteria 0-5) [30]	other results
CCCOc1cccc(-c2sc3ccc(F)cc3c2-c2c(O)c(C)nn(C)c2=O)c1 [2-213]	0 (Herbicidal rate of 5% or less (almost no effect))	3 (Herbicidal rate of 40% or more and less than 70%)	3 (Herbicidal rate of 40% or more and less than 70%)	5 (Herbicidal rate of 90% or more (almost completely withered))	3 (Herbicidal rate of 40% or more and less than 70%)	5 (Herbicidal rate of 90% or more (almost completely withered))	4 (Herbicidal rate of 70% or more and less than 90%)	5 (Herbicidal rate of 90% or more (almost completely withered))	4 (Herbicidal rate of 70% or more and less than 90%)	4 (Herbicidal rate of 70% or more and less than 90%)	1 (Herbicidal rate of 5% or more and less than 20%)	0 (Herbicidal rate of 5% or less (almost no effect))	3 (Herbicidal rate of 40% or more and less than 70%)	3 (Herbicidal rate of 40% or more and less than 70%)	4 (Herbicidal rate of 70% or more and less than 90%)	0 (Herbicidal rate of 5% or less (almost no effect))	4 (Herbicidal rate of 70% or more and less than 90%)	5 (Herbicidal rate of 90% or more (almost completely withered))	M: velvetleaf, herbicidal effect rating [3]: 0 (Herbicidal rate of 5% or less (almost no effect)); R: persian speedwell, herbicidal effect rating [6]: 5 (Herbicidal rate of 90% or more (almost completely withered)); L: windgrass, herbicidal effect rating [9]: 0 (Herbicidal rate of 5% or less (almost no effect)); F: southern crabgrass, herbicidal effect rating [11]: 5 (Herbicidal rate of 90% or more (almost completely withered)); G: green foxtail, herbicidal effect rating [12]: 4 (Herbicidal rate of 70% or more and less than 90%); J: blackgrass, herbicidal effect rating [14]: 0 (Herbicidal rate of 5% or less (almost no effect)); I: wild oat, herbicidal effect rating [15]: 0 (Herbicidal rate of 5% or less (almost no effect)); O: lambsquarters, herbicidal effect rating [17]: 1 (Herbicidal rate of 5% or more and less than 20%); P: chickweed, herbicidal effect rating [19]: 3 (Herbicidal rate of 40% or more and less than 70%); H: barnyard grass, herbicidal effect rating [22]: 3 (Herbicidal rate of 40% or more and less than 70%); N: redroot pigweed, herbicidal effect rating [26]: 5 (Herbicidal rate of 90% or more (almost completely withered)); K: Italian ryegrass, herbicidal effect rating [27]: 4 (Herbicidal rate of 70% or more and less than 90%)
CCCCCCOc1cccc(-c2sc3ccc(F)cc3c2-c2c(O)c(C)nn(C)c2=O)c1 [2-226]	0 (Herbicidal rate of 5% or less (almost no effect))	0 (Herbicidal rate of 5% or less (almost no effect))	2 (Herbicidal rate of 20% or more and less than 40%)	4 (Herbicidal rate of 70% or more and less than 90%)	0 (Herbicidal rate of 5% or less (almost no effect))	0 (Herbicidal rate of 5% or less (almost no effect))	5 (Herbicidal rate of 90% or more (almost completely withered))	0 (Herbicidal rate of 5% or less (almost no effect))	4 (Herbicidal rate of 70% or more and less than 90%)	4 (Herbicidal rate of 70% or more and less than 90%)	4 (Herbicidal rate of 70% or more and less than 90%)	0 (Herbicidal rate of 5% or less (almost no effect))	3 (Herbicidal rate of 40% or more and less than 70%)	3 (Herbicidal rate of 40% or more and less than 70%)	0 (Herbicidal rate of 5% or less (almost no effect))	0 (Herbicidal rate of 5% or less (almost no effect))	0 (Herbicidal rate of 5% or less (almost no effect))	5 (Herbicidal rate of 90% or more (almost completely withered))	herbicidal effect on M: velvetleaf [3]: 0 (Herbicidal rate of 5% or less (almost no effect)); herbicidal effect on R: persian speedwell [6]: 0 (Herbicidal rate of 5% or less (almost no effect)); herbicidal effect on L: windgrass [9]: 0 (Herbicidal rate of 5% or less (almost no effect)); herbicidal effect on F: southern crabgrass [11]: 0 (Herbicidal rate of 5% or less (almost no effect)); herbicidal effect on G: green foxtail [12]: 0 (Herbicidal rate of 5% or less (almost no effect)); herbicidal effect on J: blackgrass [14]: 0 (Herbicidal rate of 5% or less (almost no effect)); herbicidal effect on I: wild oat [15]: 0 (Herbicidal rate of 5% or less (almost no effect)); herbicidal effect on O: lambsquarters [17]: 0 (Herbicidal rate of 5% or less (almost no effect)); herbicidal effect on P: chickweed [19]: 0 (Herbicidal rate of 5% or less (almost no effect)); herbicidal effect on H: barnyard grass [22]: 0 (Herbicidal rate of 5% or less (almost no effect)); herbicidal effect on N: redroot pigweed [26]: 3 (Herbicidal rate of 40% or more and less than 70%); herbicidal effect on K: Italian ryegrass [27]: 0 (Herbicidal rate of 5% or less (almost no effect))
